The mass density is mass per unit of volume.

The values below come from the NIST ThermoML archive (doi:10.1021/je030167i).

For data set [1] the following is noted: 101.3 kPa, Liquid.
The nature of data set [2]: xn = mol fraction of the nth substance listed. The note with it: 101.3 kPa, Liquid.

± gives the expanded uncertainty stated by the source.

Take `CC(C)CCl` [1-chloro-2-methylpropane]: the kinematic viscosity came out at 4.92e-07 ± 1.8e-08 m2/s in data set [1] (298.15 K) and 4.29e-07 ± 1.6e-08 m2/s in data set [1] (313.15 K). Further, the mass density came out at 870.93 ± 0.49 kg/m3 in data set [1] (298.15 K) and 853.51 ± 0.49 kg/m3 in data set [1] (313.15 K).
In the case of `CCCCCl` [1-chlorobutane], the values for the kinematic viscosity in data set [1] (298.15 K) and in data set [1] (313.15 K) were 4.78e-07 ± 1.7e-08 m2/s and 4.21e-07 ± 1.6e-08 m2/s, respectively. Further, the results for the mass density in data set [1] (298.15 K) and in data set [1] (313.15 K) were 880.62 ± 0.3 kg/m3 and 863.86 ± 0.31 kg/m3, respectively.
`CCCCO` [butan-1-ol]: in data set [1] (298.15 K), the kinematic viscosity was determined as 3.19e-06 ± 9.3e-08 m2/s and the mass density is recorded as 805.56 ± 0.29 kg/m3. In data set [1] (313.15 K), the kinematic viscosity stood at 2.22e-06 ± 6.7e-08 m2/s and the mass density is recorded as 794.19 ± 0.3 kg/m3.
Regarding `CC(C)(C)O` [2-methylpropan-2-ol], in data set [1] (298.15 K), the kinematic viscosity was determined as 5.59e-06 ± 1.6e-07 m2/s and the mass density was found to be 780.67 ± 0.36 kg/m3. In data set [1] (313.15 K), the kinematic viscosity worked out at 2.74e-06 ± 8.8e-08 m2/s and the mass density was 765.33 ± 0.37 kg/m3.
In the same order, the values of `CC1CCCO1` (stereo unspecified) [2-methyltetrahydrofuran] are 5.59e-07 ± 2e-08 m2/s, 849.28 ± 0.49 kg/m3, 4.92e-07 ± 1.8e-08 m2/s and 834.01 ± 0.49 kg/m3.
Consider `CC(C)CO` [2-methyl-1-propanol], for which the kinematic viscosity in data set [1] (298.15 K) turned out to be 4.25e-06 ± 1.2e-07 m2/s; in data set [1] (313.15 K), 2.74e-06 ± 8.2e-08 m2/s. Besides, the mass density in data set [1] (298.15 K) turned out to be 797.71 ± 0.35 kg/m3; in data set [1] (313.15 K) it was 785.89 ± 0.36 kg/m3.
Regarding `CC(C)(C)Cl` [2-chloro-2-methylpropane], in data set [1] (298.15 K), the kinematic viscosity was 5.66e-07 ± 1e-08 m2/s and the mass density stood at 835.75 ± 0.49 kg/m3.
Regarding `CCC(C)Cl` (stereo unspecified) [2-chlorobutane], in data set [1] (298.15 K), the kinematic viscosity came to 4.54e-07 ± 1.7e-08 m2/s and the mass density is reported as 867.31 ± 0.49 kg/m3. For the same molecule, in data set [1] (313.15 K), the kinematic viscosity was 3.97e-07 ± 1.5e-08 m2/s and the mass density amounted to 850.23 ± 0.49 kg/m3.
In the same order, the values of `CCC(C)O` (stereo unspecified) [butan-2-ol] are 3.73e-06 ± 1.1e-07 m2/s, 802.25 ± 0.49 kg/m3, 2.24e-06 ± 7e-08 m2/s and 789.44 ± 0.5 kg/m3.
In the case of `CCC(C)Cl` (stereo unspecified) [2-chlorobutane] + CC1CCCO1, the kinematic viscosity in data set [2] (298.15 K, x1 = 0.035) was determined as 5.55e-07 ± 2e-08 m2/s; in data set [2] (298.15 K, x1 = 0.0835), 5.49e-07 ± 1.9e-08 m2/s; in data set [2] (298.15 K, x1 = 0.1742) it was 5.38e-07 ± 1.9e-08 m2/s; in data set [2] (298.15 K, x1 = 0.2553) it was 5.29e-07 ± 1.9e-08 m2/s; in data set [2] (298.15 K, x1 = 0.3568), 5.17e-07 ± 1.9e-08 m2/s; in data set [2] (298.15 K, x1 = 0.4555), 5.05e-07 ± 1.8e-08 m2/s. Further, the kinematic viscosity was 4.96e-07 ± 1.8e-08 m2/s in data set [2] (298.15 K, x1 = 0.5396); 4.81e-07 ± 1.8e-08 m2/s in data set [2] (298.15 K, x1 = 0.697); 4.71e-07 ± 1.7e-08 m2/s in data set [2] (298.15 K, x1 = 0.797); 4.63e-07 ± 1.7e-08 m2/s in data set [2] (298.15 K, x1 = 0.8975); 4.58e-07 ± 1.7e-08 m2/s in data set [2] (298.15 K, x1 = 0.9487); 4.54e-07 ± 1.7e-08 m2/s in data set [2] (298.15 K, x1 = 1). Also, the kinematic viscosity in data set [2] (313.15 K, x1 = 0.035) amounted to 4.88e-07 ± 1.8e-08 m2/s; in data set [2] (313.15 K, x1 = 0.0835) it was 4.83e-07 ± 1.8e-08 m2/s; in data set [2] (313.15 K, x1 = 0.1742), 4.74e-07 ± 1.7e-08 m2/s; in data set [2] (313.15 K, x1 = 0.2553), 4.65e-07 ± 1.7e-08 m2/s; in data set [2] (313.15 K, x1 = 0.3568), 4.56e-07 ± 1.7e-08 m2/s; in data set [2] (313.15 K, x1 = 0.4555), 4.46e-07 ± 1.7e-08 m2/s. In addition, the kinematic viscosity in data set [2] (313.15 K, x1 = 0.5396) was determined as 4.38e-07 ± 1.6e-08 m2/s; in data set [2] (313.15 K, x1 = 0.697) it was 4.24e-07 ± 1.6e-08 m2/s; in data set [2] (313.15 K, x1 = 0.797), 4.15e-07 ± 1.6e-08 m2/s; in data set [2] (313.15 K, x1 = 0.8975), 4.06e-07 ± 1.5e-08 m2/s; in data set [2] (313.15 K, x1 = 0.9487), 4.01e-07 ± 1.5e-08 m2/s; in data set [2] (313.15 K, x1 = 1), 3.97e-07 ± 1.5e-08 m2/s. Further, the mass density stood at 850.14 ± 0.49 kg/m3 in data set [2] (298.15 K, x1 = 0.035); 851.29 ± 0.49 kg/m3 in data set [2] (298.15 K, x1 = 0.0835); 853.4 ± 0.49 kg/m3 in data set [2] (298.15 K, x1 = 0.1742); 854.9 ± 0.49 kg/m3 in data set [2] (298.15 K, x1 = 0.2553); 857.12 ± 0.49 kg/m3 in data set [2] (298.15 K, x1 = 0.3568); 858.75 ± 0.49 kg/m3 in data set [2] (298.15 K, x1 = 0.4555). Moreover, the mass density in data set [2] (298.15 K, x1 = 0.5396) came to 860.37 ± 0.49 kg/m3; in data set [2] (298.15 K, x1 = 0.697), 863.09 ± 0.49 kg/m3; in data set [2] (298.15 K, x1 = 0.797), 864.45 ± 0.49 kg/m3; in data set [2] (298.15 K, x1 = 0.8975) it was 866.03 ± 0.49 kg/m3; in data set [2] (298.15 K, x1 = 0.9487), 866.65 ± 0.49 kg/m3; in data set [2] (298.15 K, x1 = 1), 867.31 ± 0.49 kg/m3. Also, the mass density in data set [2] (313.15 K, x1 = 0.035) is 834.84 ± 0.49 kg/m3; in data set [2] (313.15 K, x1 = 0.0835), 835.54 ± 0.49 kg/m3; in data set [2] (313.15 K, x1 = 0.1742), 837.42 ± 0.49 kg/m3; in data set [2] (313.15 K, x1 = 0.2553), 839.1 ± 0.49 kg/m3; in data set [2] (313.15 K, x1 = 0.3568), 840.87 ± 0.49 kg/m3; in data set [2] (313.15 K, x1 = 0.4555), 842.26 ± 0.49 kg/m3. The mass density in data set [2] (313.15 K, x1 = 0.5396) is 843.91 ± 0.49 kg/m3; in data set [2] (313.15 K, x1 = 0.697), 846.32 ± 0.49 kg/m3; in data set [2] (313.15 K, x1 = 0.797), 847.77 ± 0.49 kg/m3; in data set [2] (313.15 K, x1 = 0.8975), 848.87 ± 0.49 kg/m3; in data set [2] (313.15 K, x1 = 0.9487) it was 849.41 ± 0.49 kg/m3; in data set [2] (313.15 K, x1 = 1), 850.23 ± 0.49 kg/m3.
Take `CC(C)(C)O` [2-methylpropan-2-ol] + CC1CCCO1: in data set [2] (298.15 K, x1 = 1), the kinematic viscosity amounted to 5.59e-06 ± 1.6e-07 m2/s and the mass density came to 780.67 ± 0.36 kg/m3. Also, in data set [2] (313.15 K, x1 = 1), the kinematic viscosity came out at 2.74e-06 ± 8.8e-08 m2/s and the mass density is listed as 765.33 ± 0.37 kg/m3.
